Laboratory results as given in article PMC8395111 (International Journal of Molecular Sciences, 2021).
Where two headings read alike, the source gives them in different places. Square brackets hold non-standard residues; d marks the D form. Peptide text beside a SMILES is read from it.

Tests used:
[1] = Ex vitro stability study in fetal bovine serum, SDS-PAGE; format: in vitro ADME; conditions: 50 µg peptide in 200 µL, 37 °C, Coomassie, at least two measurements
Experimental: (§1) Peptide stability was tested in the presence of fetal bovine serum (FBS, Gibco®) and human serum (HS, Sigma-Aldrich, Deisenhofen, Germany). Therefore 50 µg of the peptide was mixed with 0 µL (0%), 4 µL (2%) and 20 µL (10%) pure FBS or HS and refilled with PBS buffer to a total volume of 200 µL and incubated for 1 day, 6 days and 7 days at 37 °C. Sample aliquots of 10 µL were taken before incubation (0 h) and after 1 h, 8 h, 24 h, 2 days and 7 days of incubation. The aliquots (10 µL) were immediately mixed with 10 µL 2 × loading sample buffer and stored at −20 °C. The collected samples of the stability studies were analyzed by SDS- polyacrylamide gel electrophoresis (BioRad, Mini-PROTEAN Tetra System). As a standard, the Ultra-low Range Molecular Weight Marker M3546 (Sigma-Aldrich, Deisenhofen, Germany) was used. Before use, the collected samples of the stability studies (10 µL aliquot + 10 µL 2 xLD), as well as the Ultra-Low Molecular Weight marker (ULMW), were brought to room temperature. A concentration series in the range of 0.5 µg, 1 µg and 2.5 µg peptide per 10 µL sample volume was prepared in PBS for each peptide. In total, 10 µL of the resulting samples (0.5 µg, 1 µg and 2.5 µg peptide) were mixed with 10 µL 2 × loading buffer. Afterwards, all samples (collected samples, ULMW, concentration series) were incubated at 95 °C for 10 min.

[2] = Propidium iodide-uptake toxicity assay, NHDF; format: cell-based, human; conditions: human, normal human dermal fibroblasts (NHDF), PI-uptake, fibroblast growth medium (2% FBS)
Experimental: (§2) To determine peptide-induced cell death, cells were resuspended in respective media (see Section 2.2) and diluted to a concentration of 1 × 10^6 cells/mL. 100 µL Aliquots ([…]) for up to 8 h in the presence of propidium iodide PI (2 µL/10^5 cells of 50 µg/mL, Molecular Probes Inc., Eugene, OR, USA) at room temperature in black 96-well plates. PI-uptake was measured after 0, 1, 2, 4 and 8 h using the GloMax® Multi+ Detection System (Promega, Madison, WI, USA). Cytotoxicity was calculated from the percentage of PI-positive cells in media alone (P0) and in the presence of peptide (PX) (see Equation (3)). Triton-X-100 was used to determine 100% of PI-positive cells (P100). (3) %PI−uptake=100×(PX−P0)/(P100−P0)
(§3) Excitation and emission wavelengths were 536 nm and 617 nm, respectively. The cytotoxicity of the peptides was further investigated in the presence of different serum types and amounts, as well as in the presence of protease inhibition.

[3] = pH 7.4
Experimental: (§5) Spectra of tryptophan fluorescence were measured at room temperature with a Cary Eclipse fluorescence spectrophotometer of Varian (Salt Lake City, UT, USA). The excitation wavelength was set to 280 nm, and the slid-width was 10 nm. The emission was recorded between 300 nm and 410 nm.
(§6) Quenching of Tryptophan was carried out in the presence and absence of phospholipid liposomes (lipid-to-peptide ratio 25:1) using 0.1, 0.4 and 0.7 M acrylamide. The data were analyzed according to the Stern–Volmer equation (Equation (2)):(2) F0/F=1+KSV×[Q] where F0 and F represent the fluorescence emission intensities in the absence and presence of the quencher molecule (Q), and KSV is the Stern–Volmer quenching constant, which is a quantitative measure for the accessibility of tryptophan to acrylamide [80].

[4] = Tryptophan fluorescence and acrylamide quenching in buffer (solubility/aggregation); conditions: for λ em,max / KSV (Stern–Volmer constant): PBS, mean ± SD, three experiments; for λ em,max: Trp fluorescence, excitation 280 nm, room temperature; for KSV (Stern–Volmer constant): acrylamide 0.1, 0.4, 0.7 M
Experimental: as §5, §6

[5] = test system: glioblastoma cell line U-87 mg; format: cell-based; conditions: PI-uptake
Experimental: (§4) To determine peptide-induced cell death, cells were resuspended in respective media (see Section 2.2) and diluted to a concentration of 1 × 10^6 cells/mL. 100 µL Aliquots (10^5 cells) were incubated with different peptide concentrations (5 µM to 100 µM) for up to 8 h in the presence of propidium iodide PI (2 µL/10^5 cells of 50 µg/mL, Molecular Probes Inc., Eugene, OR, USA) at room temperature in black 96-well plates. PI-uptake was measured after 0, 1, 2, 4 and 8 h using the GloMax® Multi+ Detection System (Promega, Madison, WI, USA). Cytotoxicity was calculated from the percentage of PI-positive cells in media alone (P0) and in the presence of peptide (PX) (see Equation (3)). Triton-X-100 was used to determine 100% of PI-positive cells (P100). (3) %PI−uptake=100×(PX−P0)/(P100−P0)
as §3

[6] = test system: melanoma cell line SBcl-2; format: cell-based; conditions: SBcl-2, PI-uptake
Experimental: as §4, §3

[7] = test system: glioblastoma cell line LN-229; format: cell-based; conditions: LN-229, PI-uptake
Experimental: as §4, §3

[8] = Ex vitro stability study in human serum, SDS-PAGE; format: in vitro ADME; conditions: 50 µg peptide in 200 µL, 37 °C, Coomassie
Experimental: as §1

[9] = test system: normal human dermal fibroblasts NHDF; assay: Propidium iodide-uptake toxicity assay, NHDF; format: cell-based; conditions: 2–20 µM peptide, 8 h
Experimental: as §2, §3

[10] = test system: melanoma cell line A375; format: cell-based; conditions: A375, PI-uptake, 10% FBS
Experimental: as §4, §3
The standard growth medium used for cell line A375 was DMEM containing 10% fetal bovine serum (FBS). Before the study of peptide-induced cytotoxicity, cells were diluted to 10^5 cells/100 µL in DMEM containing 2% FBS. […]

[11] = not given; remark: listed apart in the source
[12] = cited from earlier work
Excerpt: The blood-brain barrier (BBB) is formed by a tightly sealed monolayer of endothelial cells, and the tight junctions between the endothelial cells are responsible for the barrier function of the BBB. Various drugs are discovered to treat central nervous system (CNS) disorders but fail to enter the market because of their inability to cross the BBB [19]. Vemurafenib, an antitumoral agent that is capable to pass the BBB, was approved in 2011. It inhibits the BRAF-serine/threonine-kinase and leads to a median survival of 13.6 months compared to 9.7 months upon treatment with dacarbazine [ ...

[13] = 2% FBS in PBS, up to 7 days (9D-RDP215 main series 2 days, repeat 7 days)
[14] = 2% HS in PBS, 7 days, at least two measurements

Row | SMILES | peptide degradation [1, 13] | peptide degradation ([1]; 10% FBS in PBS, up to 7 days) | CC50 at 4 h [2] [µM] | CC50 at 8 h [2] [µM] | λ em,max [4] [nm] | KSV (Stern–Volmer constant) [4] [M⁻¹] | LC50 after 8 h [5] [µM] | LC50 after 8 h [6] [µM] | LC50 after 8 h [7] [µM] | peptide degradation [8, 14] | median survival [12] [months] | also measured
1 | CC[C@H](C)[C@H](NC(=O)[C@@H](CCCNC(=N)N)NC(=O)[C@H](Cc1c[nH]c2ccccc12)NC(=O)[C@H](N)Cc1ccccc1)C(=O)N[C@H](CCCNC(=N)N)C(=O)N[C@H](C(=O)N[C@H](CCCNC(=N)N)C(=O)N[C@H](CCCNC(=N)N)C(=O)N1CCC[C@H]1C(=O)N[C@H](CCCNC(=N)N)C(=O)N[C@H](CCCNC(=N)N)C(=O)N[C@H](C(=O)N[C@H](CCCNC(=N)N)C(=O)N[C@H](C(=O)N[C@H](CCCNC(=N)N)C(=O)N[C@@H](Cc1c[nH]c2ccccc12)C(=O)N[C@H](Cc1ccccc1)C(N)=O)[C@@H](C)CC)[C@@H](C)CC)[C@@H](C)CC [9D-RDP215, 9D-R-DIM-P-LF11-215] (H-[dF]W[dR]I[dR]I[dR][dR]P[dR][dR]I[dR]I[dR]W[dF]-NH2) | no degradation | no degradation | 58.8 ± 4.2 | 18.9 ± 1 | 354 ± 0.5 | 27.0 ± 2.8 | 1.6 ± 0.1 | 1.8 ± 0.1 | 1.4 ± 5.1 | does not show any peptide degradation |  | solubility / aggregation in buffer [3]: completely dissolved and not aggregated; peptide degradation ([8]; 10% HS in PBS, up to 7 days, at least two measurements): does not show any peptide degradation
2 | CC[C@H](C)[C@H](NC(=O)[C@H](CCCNC(=N)N)NC(=O)[C@@H](NC(=O)[C@H](CCCNC(=N)N)NC(=O)[C@H](CCCNC(=N)N)NC(=O)[C@@H]1CCCN1C(=O)[C@H](CCCNC(=N)N)NC(=O)[C@H](CCCNC(=N)N)NC(=O)[C@@H](NC(=O)[C@H](CCCNC(=N)N)NC(=O)[C@@H](NC(=O)[C@H](CCCNC(=N)N)NC(=O)[C@H](Cc1c[nH]c2ccccc12)NC(=O)[C@@H](N)Cc1ccccc1)[C@@H](C)CC)[C@@H](C)CC)[C@@H](C)CC)C(=O)N[C@@H](CCCNC(=N)N)C(=O)N[C@@H](Cc1c[nH]c2ccccc12)C(=O)N[C@@H](Cc1ccccc1)C(N)=O [RDP215, R-DIM-P-LF11-215] (H-FWRIRIRRPRRIRIRWF-NH2) | No degradation | No degradation | 99.1 ± 0.1 | 68.2 ± 1.8 | 356 ± 0 | 24.7 ± 5.4 | 3.0 ± 0.1 | 4.7 ± 0.4 | 1.7 ± 0.1 | completely degraded |  | harm on NHDF cells (PI-uptake) [9]: no harm; decrease of KSV vs buffer: 20.7 M⁻¹; solubility / aggregation in buffer ([4]; PBS pH 7.4, concluded from Trp emission maximum and KSV): completely dissolved and not aggregated; peptide degradation ([8]; 2% HS in PBS, 1 h to 2 days): ongoing peptide degradation; peptide degradation ([8]; 10% HS in PBS, 24 h, at least two measurements): completely degraded; LC50 after 4 h ([10]; 4 h): 17.1 ± 1.5 µM; LC50 after 8 h ([10]; 8 h): 3.8 ± 0.3 µM; λem,max with DPPS [11]: 336 nm
3 | CCCS(=O)(=O)Nc1ccc(F)c(C(=O)c2c[nH]c3ncc(-c4ccc(Cl)cc4)cc23)c1F [Vemurafenib, vemurafenib] |  |  |  |  |  |  |  |  |  |  | 13.6 | 
4 | CN(C)/N=N/c1[nH]cnc1C(N)=O [dacarbazine] |  |  |  |  |  |  |  |  |  |  | 9.7 | 
